Four compounds from ChEMBL document CHEMBL1128967, “Quantification of the extent of attenuation of the rate of turnover chemistry of the TEM-1 -lactamase by the -1R-hydroxyethyl group in substrates” (Bioorg Med Chem Lett, 1996) can be followed below.

Assay [1] can be described thus: Compound was evaluated for the beta-lactamase activity as substrate expressed as ratio of kcat/Km.
The nature of assay [2]: Compound was evaluated for the beta-lactamase activity as a substrate expressed as ratio of kcat/Km.
The nature of assay [3]: (§1) Compound was evaluated for the beta-lactamase activity as a substrate.
Assay [4] can be described thus: Compound was evaluated for beta-lactamase activity as a substrate.
For assay [5], the target named is Beta-lactamase (Enterobacter cloacae) (UniProt P05364). The assay is described as §1.
Beta-lactamase (Enterobacter cloacae), sequence (P05364 21-381 limits assumed): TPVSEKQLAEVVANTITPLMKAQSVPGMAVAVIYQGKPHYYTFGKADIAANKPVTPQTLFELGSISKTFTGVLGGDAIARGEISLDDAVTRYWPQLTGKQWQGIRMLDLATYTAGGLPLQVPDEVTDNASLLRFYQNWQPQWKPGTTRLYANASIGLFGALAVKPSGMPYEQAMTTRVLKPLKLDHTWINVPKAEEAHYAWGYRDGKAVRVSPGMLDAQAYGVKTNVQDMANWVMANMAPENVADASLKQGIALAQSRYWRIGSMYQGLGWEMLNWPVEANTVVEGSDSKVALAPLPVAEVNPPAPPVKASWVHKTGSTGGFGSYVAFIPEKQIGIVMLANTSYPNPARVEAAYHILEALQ

With `C[C@@H](O)[C@H]1C(=O)N2[C@@H]1SC(C)(C)[C@@H]2C(=O)O`, in assay [1], the k cat/Km came to 27 M⁻¹ s⁻¹.

For `CC1(C)S[C@@H]2CC(=O)N2[C@H]1C(=O)O`, the k cat/Km in assay [2] turned out to be 6.6 M⁻¹ s⁻¹.

For the compound `C[C@@H](O)[C@H]1C(=O)N2C(C(=O)O)=C(SCCNC=N)C[C@H]12`, the Ratio in assay [1] stood at 1480 M⁻¹ s⁻¹. The same compound displayed a k cat in assay [3] of 0.04 s⁻¹. Further, the Michaelis-Menten constant (Km) (as a rule, the substrate concentration at which the rate is half of its maximum) in assay [4] was found to be 27 µM.

With `C[C@@H](O)[C@@H]1C(=O)N2[C@@H]1SC(C)(C)[C@@H]2C(=O)O`, in assay [3], the Km is 1.6 µM, the Ks is 13.5 µM, the k3 came to 0.5 s⁻¹ and the k cat came out at 0.4 s⁻¹. This compound came in with a k cat/Km in assay [3] of 2.8 M⁻¹ s⁻¹. This compound also came in with a k2 in assay [5] of 3.7 s⁻¹.
